Assay results published in article PMC3115942 (PLoS ONE, 2011).

Assays:
SUIT-2 cells [1] = assay: Passage growth assay, SUIT-2; assay type: cell-based, human; conditions: 5 µM, passage 2 and 3
Method: (§1) 20,000 cells were seeded per well in 6 well plates (triplicates) with DMSO or 5 µM MS-0022. Treatment medium was changed on day 3–5, and after 5–7 days the cells were trypsinized, re-suspended in medium and counted, before reseeding cells at 20,000/well for a subsequent passage. The average growth of MS-0022 treated cells was calculated as a percentage of the growth of the DMSO control at the end of each passage. Graphs display average of percent growth with standard deviation bars (n = 3).

PANC-1 cells [2] = assay: Soft agar colony formation assay, PANC-1; assay type: cell-based, human; conditions: 21 days
Method: (§2) 2000 PANC-1 or SUIT-2 cells were suspended in 1.5 mL growth media containing 0.35% agar (Oxoid), over a 1.5 mL base layer containing 0.5% agar in 6-well plates. The plates were incubated for 14 days (SUIT-2) and 21 days (PANC-1) and then stained for 1 h with 1 ml of 0.02% crystal violet (Sigma-Aldrich), and colonies were counted according to sizes; <0.2 mm (small), 0.2–1 mm (medium) and >1 mm (large). Data represent average numbers with standard deviation bars (n = 3). The experiments have been repeated with similar result.

[3] = test system: GLI1 mRNA in PANC-1 cells; assay: Real time PCR of GLI1 mRNA in PANC-1; assay type: cell-based, human; conditions: 5 µM, 48 hrs
Method: (§3) Cells were lysed for RNA extraction after 48 or 72 hours of treatment. Total RNA from cultured cells or tumor tissue was isolated using the GeneElute miniprep kit (Sigma-Aldritch) following the manufacturer^'s instructions. cDNA was synthesized from the isolated mRNA using the Retroscript kit (Ambion), and real-time PCR was carried out using the SYBR Green PCR master mix (Stratagene) according to the manufacturer^'s instructions with an Mx3000P cycler (Stratagene). The relative concentrations of cDNA present in each sample were calculated by the MxPro software (Stratagene), normalized for GAPDH (mRNA from cells) or GUS (mRNA from tumors). For real time PCR primer sequences see Table 6. For the tumor tissue real time PCR, previously described human and mouse specific primers against GUSB, PTCH1 and GLI1were used.

PANC-1 cells [4] = assay: Passage growth assay, PANC-1; assay type: cell-based, human; conditions: 5 µM, passages of 5–7 days
Method: as §1

58 kinases = assay: Millipore kinase diversity panel (whole panel); assay type: biochemical; conditions: 10 µM
SUIT-2 xenograft = assay: SUIT-2 subcutaneous xenograft in CB17/SCID mice; assay type: in vivo
SUIT-2 cells [5] = assay: Soft agar colony formation assay, SUIT-2; assay type: cell-based, human; conditions: 14 days
Method: as §2

PC-3 cells [6] = assay: Passage growth assay, PC-3; assay type: cell-based, human; conditions: 5 µM, passages of 5–7 days
Method: as §1

[7] = test system: PANC-1, SUIT-2, PC-3 and FEMX cells; assay: In vitro antiproliferative assay (MTS), tumor cell lines; assay type: cell-based, human; conditions: 10 µM, 4 day exposure; across PANC-1, SUIT-2, PC-3 and FEMX
Method: (§4) Cells were plated at a density of 3000 (THLE-2 and PC-3) and 1000 (PANC-1, SUIT-2 and FEMX) cells per well (on the basis of their growth rate) in 200 µl of medium in a 96-well plate. Medium was changed daily, and after four days, the assay was read using a MTS kit (Promega) according to the instructions of the manufacturer. Graphs display average of percent growth with standard deviation (n = 8).

GLI1 mRNA in PC-3 cells = assay: Real time PCR of GLI1 mRNA in PC-3; assay type: cell-based, human; conditions: 48 hrs
Method: as §3

PC-3 cells [8] = assay: In vitro antiproliferative assay (MTS), PC-3; assay type: cell-based, human; conditions: 4 day
Method: as §4

[9] = test system: Wnt signaling in HEK293 cells; assay: Wnt luciferase reporter assay (SuperTop-luc) in HEK293; assay type: cell-based; conditions: HEK293, 10 and 20 µM, 24 hours
Method: Vectors were obtained from the following: GliBS-Luc reporter (gift from H. Sasaki), pBluescript (pBS) (Stratagene), FL-HA-GLI1 (Gli1) and Gli2-GFP (Gli2) (gifts from R. Toftgård), Super8XTOPFlash, and NFkB-luc (Panomics). 10 ng renilla luciferase (pRL-TK) (Promega) was used as a transfection control. HEK293 and NIH3T3 cells were seeded at 80,000 per well in 48-well plates on day 1, and were co-transfected on day 2 using a total of 0.4 µg plasmid per well mixed at 1∶3 in FUGENE6 according to manufacturer^'s instructions. On day 3, control medium and activating medium (50% L1 conditioned medium, 50% Shh conditioned medium or medium containing 10 ng/mL recombinant rcrTNF-α (R&D Systems)) +/− 10–20 µM MS-0022 were added, using DMSO as a control (the NFkB pathway inhibitor Bay11-7082 was used as a control in the NFkB assay). Samples were analyzed on day 4 or 5 using the Dual Luciferase assay kit according to manufacturer^'s instructions. Graphs display relative or fold reporter activity, and are calculated from a mean ratio of firefly reporter luminescence/pRL-TK luminescence with standard deviation error bars (n = 3). The experiments have been repeated with similar results.

[10] = test system: ciliary accumulation of Smo in Ptch−/− MEF; assay: Immunostaining of Smo in primary cilia of Ptch−/− MEF; assay type: cell-based, mouse; conditions: 5 µM, 24 hours
Method: PTCH−/− MEF were seeded on pre-coated glass slides (1 hour coating with 0.1% Gelatin (G1393) and 0.003% Collagen (C8919) (Sigma-Aldrich) in PBS). 80% confluent cells were switched from 10% to 0.5% FBS in medium and cells were treated with DMSO or 5 µM MS-0022 for 24 hours in (n = 3) before subsequent immunofluorescent staining: Slides were fixed with 4% paraformaldehyde (Sigma-Aldrich), permeabilized for 10 min in 0.1% v/v Triton X-100 (Sigma-Aldrich) in PBS (PBT), and blocked with 10% w/v BSA (Saveen Werner) in PBT for 1 hour. Primary antibodies, mouse anti-acetylated tubulin (a-Tub) (Sigma-Aldrich (T7451), 1∶1000) goat anti-Smo (Santa Cruz Biotechnology (sc-6367), 1∶1000), and goat anti-GLI-1 (RnD systems (AF3455), 1∶500) were diluted in 0.5% w/v BSA in PBT and left on the slides over night at 4°C. Secondary antibodies donkey anti-goat IgG-Alexa 594 and donkey anti-mouse IgG-Alexa 488 (Invitrogen, both at 1∶500) were added in 0.5% w/v BSA in PBT for 1 hour. The slides were counterstained with DAPI (Roche, 1 mg/ml) in PBS. 3 random regions were imaged pr slide using a confocal LSM510 microscope (Carl Zeiss MicroImaging). The ratio of […] positive cilia was quantified manually or processed and analyzed using ImageJ to quantify the intensity of Smo and aTub for each cilium in the images (http://rsb.info.nih.goc/ij/). […]

[11] = 50 mg/kg daily PO, 18 days, vs control group

## Cc1cccn2cc(-c3ccc(NC(=O)c4ccccc4Br)cc3)nc12 [MS-0022, 2-bromo-N-(4-(8-methylimidazo[1,2-a]pyridin-2-yl)phenyl)benzamide]
SUIT-2 cells [1]
  serial passage growth reduction, SUIT-2: not significant
PANC-1 cells [2]
  soft agar colony formation, PANC-1: reduction in large (Figure 2C–D, and G) and medium sized colonies
[3]
  GLI1 mRNA levels, PANC-1: without reducing GLI1 mRNA levels
PANC-1 cells [4]
  growth reduction after passage 2, PANC-1: 80%
58 kinases
  inhibition of kinases of the diversity panel (in words): did not significantly inhibit
SUIT-2 xenograft; 50 mg/kg daily PO
  animal weight, SUIT-2 xenograft mice: unaffected
  outwards signs of toxicity, SUIT-2 xenograft mice: did not result in any outwards signs of toxicity
SUIT-2 xenograft; [11]
  reduction in tumor volume, SUIT-2 xenograft: 27%
  reduction in tumor weight, SUIT-2 xenograft: 36%
SUIT-2 xenograft; after 7 days of treatment, 50 mg/kg PO, 50 mg/kg
  mouse (stromal) Gli1 mRNA in SUIT-2 tumors: reduced significantly
SUIT-2 xenograft; endpoint of the experiment (18 days), 50 mg/kg PO
  human or mouse Gli1, or Ptch1 mRNA levels in SUIT-2 tumors: no statistical relevant reduction
SUIT-2 cells [5]
  soft agar colony formation, SUIT-2: reduction in large (Figure 2C–D, and G) and medium sized colonies
PC-3 cells [6]
  growth reduction after passage 2, PC-3: 80%
[7]
  growth reduction (MTS): 40%–70%
GLI1 mRNA in PC-3 cells
  GLI1 mRNA levels, PC-3: reduced GLI1 mRNA levels
PC-3 cells [8]
  growth (MTS), PC-3: growth was only reduced by MS-0022
[9]
  L1 medium induced Wnt signaling: did not significantly block
[10]
  ciliary accumulation of Smo: effectively blocked ciliary accumulation of Smo
